Experimental data as given in the NIST ThermoML archive (doi:10.1016/j.jct.2017.07.034).

Experiments:
[1] = mn = molality of the nth substance listed, in mol/kg; details: 99.6 kPa, Liquid, Vibrating tube method
[2] = 99.6 kPa, Liquid, Vibrating tube method

O [water] + CCN1C(=O)N(C)[C@@H]2[C@H]1N(C)C(=O)N2CC
Details | mass density [kg/m3]
[1], 278.15 K, m2 = 0 | 999.964

CCN1C(=O)N(C)[C@@H]2[C@H]1N(C)C(=O)N2CC + O
mass density [kg/m3], [1]
Details | m1 = 0.01976 | m1 = 0.04272 | m1 = 0.06009 | m1 = 0.07765 | m1 = 0.1094 | m1 = 0.136 | m1 = 0.155 | m1 = 0.1749 | m1 = 0.1935
278.15 K | 1000.71 | 1001.58 | 1002.23 | 1002.88 | 1004.07 | 1005.05 | 1005.75 | 1006.48 | 1007.16
288.15 K | 999.821 | 1000.65 | 1001.28 | 1001.91 | 1003.04 | 1003.98 | 1004.64 | 1005.34 | 1005.98
298.15 K | 997.745 | 998.551 | 999.157 | 999.764 | 1000.85 | 1001.76 | 1002.4 | 1003.07 | 1003.68
308.15 K | 994.713 | 995.494 | 996.08 | 996.672 | 997.724 | 998.597 | 999.219 | 999.861 | 1000.46
318.15 K | 990.876 | 991.636 | 992.207 | 992.779 | 993.803 | 994.654 | 995.256 | 995.879 | 996.461

[2H]O[2H] [water-d2]
[2]
Details | mass density [kg/m3]
278.15 K | 1105.52
288.15 K | 1105.78
298.15 K | 1104.34
308.15 K | 1101.65
318.15 K | 1097.87

[2H]O[2H] [water-d2] + CCN1C(=O)N(C)[C@@H]2[C@H]1N(C)C(=O)N2CC
[1], m2 = 0
Details | mass density [kg/m3]
278.15 K | 1105.52
288.15 K | 1105.78
298.15 K | 1104.34
308.15 K | 1101.65
318.15 K | 1097.87

CCN1C(=O)N(C)[C@@H]2[C@H]1N(C)C(=O)N2CC + [2H]O[2H]
mass density [kg/m3], [1]
Details | m1 = 0.02067 | m1 = 0.03855 | m1 = 0.06093 | m1 = 0.08301 | m1 = 0.09921 | m1 = 0.1206 | m1 = 0.1402 | m1 = 0.159 | m1 = 0.1743
278.15 K | 1105.97 | 1106.36 | 1106.84 | 1107.32 | 1107.67 | 1108.14 | 1108.56 | 1108.97 | 1109.3
288.15 K | 1106.17 | 1106.51 | 1106.94 | 1107.36 | 1107.67 | 1108.07 | 1108.44 | 1108.8 | 1109.08
298.15 K | 1104.7 | 1105 | 1105.38 | 1105.75 | 1106.03 | 1106.39 | 1106.71 | 1107.03 | 1107.28
308.15 K | 1101.97 | 1102.24 | 1102.58 | 1102.91 | 1103.16 | 1103.47 | 1103.76 | 1104.04 | 1104.28
318.15 K | 1098.15 | 1098.4 | 1098.71 | 1099.01 | 1099.23 | 1099.52 | 1099.78 | 1100.04 | 1100.24
